Broadly, the CC50 is the concentration that lowers cell viability or growth by half. What is called EC50 is the concentration needed to bring the measured effect to its halfway point. The low end stands for an effect from little substance, the high end for a need for much substance.

The record followed here is publication PMC11431997, “Baicalin Inhibits FIPV Infection In Vitro by Modulating the PI3K-AKT Pathway and Apoptosis Pathway” (International Journal of Molecular Sciences, 2024).

Data set [1] in a line: Cytotoxicity assay of the compounds (CCK-8). The class given is cell-based, feline. The note with it: cat. How it is done:
(§1) CRFK cells were seeded in 96-well cell culture plates at a density of 1 × 10^4 cells/well and incubated at 37 °C with 5% CO2 until the cell density reached more than 90%. Then, the medium was discarded, and the cells were washed twice with PBS. The compound to be tested was diluted in 10 successive gradients with MM at a 2-fold multiplicity (at the same time, there was a cell control group of 100 μL of MM, and 3 replicate wells were set for each concentration and group) and incubated at 37 °C with 5% CO2 for 72 h; then, the liquid in the plate was discarded and washed twice with PBS. Afterwards, the cytopathic ratios (CRs) of the compounds to cells were calculated according to the instructions of the Cell Counting Kit-8 (MCE, NJ, USA), and the CC50s of the compounds and the MNTCs at which the compounds could survive more than 90% of the cells were calculated using GraphPad Prism 10. In subsequent experiments, the final concentrations of the compounds after addition were the MNTCs of the compounds unless otherwise specified.

In data set [2] the test system is CRFK cells. The data set can be described thus: Cytotoxicity assay of the compounds (CCK-8). The class given is cell-based, feline. Here is the method: as §1
Data set [3] deals with FIPV (BJ-01). Put plainly: Inhibitory effects of compounds on FIPV-infected cells (compound and FIPV added simultaneously, CCK-8). The class given is cell-based, feline infectious peritonitis virus. The note with it: 72 h; for inhibition of FIPV infection (MIR): compound at MNTC added with 100 TCID50 FIPV to CRFK cells. Here is the method:
According to previous methods, CRFK cells were seeded in 96-well cell culture plates at a density of 1 × 10^4 cells/well and cultured at 37 °C in 5% CO2 until the cell density was greater than 90%. After the cells were washed twice with PBS, 50 μL of test compound and 50 μL of FIPV were added to each well simultaneously (at the same time, a cell control group with only 100 μL of MM and a viral control group with only 100 μL of FIPV were added). There were 3 replicate wells for each compound and group. After 72 h of incubation at 37 °C and 5% CO2, the liquid in the plate was discarded, and the cells were washed twice with PBS. The MIR of the compounds to the virus was calculated according to the instructions of the Cell Counting Kit-8. Afterwards, the compounds with MIR > 50% were diluted to 8 concentrations with MM, and the above process was repeated. Then, the EC50 values of the compounds were calculated with GraphPad Prism 10.

[4] abbreviates: CRFK cells, 72 h, CCK-8, read-out: CC50.
Where [5] appears, read: CRFK cells, 72 h, CCK-8, concentration at which more than 90% of the cells survive.

Structures are written as SMILES. In brackets after ≈: the same amount, converted by molar mass. Where two headings read alike, the source gives them in different places.

`O=C(O)/C=C/c1ccc(O)c(O)c1` [Caffeic acid] yielded a CC50 at 72 h in data set [1] of 58.8 µg/mL (≈ 326 µM). Besides, in data set [2] (cat, 72 h), the “MNTC (maximum noncytotoxic concentration)” value was found to be 53.43 µg/mL.
With `Cc1cccc2c3c(ccc12)C1=C(C(=O)C3=O)[C@@H](C)CO1` [Dihydrotanshinone I], in data set [3], the “inhibition of FIPV infection (MIR)” value was “less than 20%”. It took 426 µg/mL (≈ 1530 µM) to reach half-maximal cytotoxicity in data set [1] (CC50 at 72 h). Further, the “MNTC (maximum noncytotoxic concentration)” value in data set [2] (cat, 72 h) is 246.4 µg/mL.
In turn, `N#C[C@@]1(c2ccc3c(N)ncnn23)O[C@H](CO)[C@@H](O)[C@H]1O` [GS-441524, reference compound] displayed an EC50 in data set [3] (Alphacoronavirus 1, FIPV in CRFK cells, gradient dilution, CCK-8) of 0.205 µg/mL (≈ 0.704 µM). Moreover, the “inhibition of FIPV infection (MIR)” value in data set [3] is “significantly more than the other compounds tested”. Moreover, the CC50 at 72 h in data set [1] (setting [4]) came to 70.3 µg/mL (≈ 241 µM). In data set [2] (setting [5]), the “MNTC (maximum noncytotoxic concentration)” value stood at 36.20 µg/mL.
As for `Cc1nc(C)c(C)nc1C.Cl` [Ligustrazine hydrochloride], the “inhibition of FIPV infection (MIR)” value in data set [3] is reported as “less than 20%”. In addition, the CC50 in data set [2] (CRFK cells, 72 h, CCK-8) amounted to 2709 µg/mL. For the same molecule, the “MNTC (maximum noncytotoxic concentration)” value in data set [2] (setting [5]) worked out at 969.6 µg/mL.
Turning to `O=C(/C=C/c1ccc(O)c(O)c1)O[C@@H]1C[C@](O)(C(=O)O)C[C@@H](O)[C@H]1O` [Chlorogenic acid], in data set [1], the CC50 at 72 h amounted to 2170 µg/mL (≈ 6120 µM). The “MNTC (maximum noncytotoxic concentration)” value in data set [2] (cat, 72 h) was 1605 µg/mL.
On to `O=c1c(-c2ccc(O)cc2)coc2c([C@@H]3O[C@H](CO)[C@@H](O)[C@H](O)[C@H]3O)c(O)ccc12` [Puerarin], for which, in data set [3], the “inhibition of FIPV infection (MIR)” value was “less than 20%”. Further, the 50% cytotoxic concentration (CC50) at 72 h in data set [1] was determined as 209 µg/mL (≈ 501 µM). For the same molecule, the “MNTC (maximum noncytotoxic concentration)” value in data set [2] (cat, 72 h) was 83.77 µg/mL.
As for `C[S+](C)[O-]` [DMSO], in data set [2], the MNTC came out at 0.83%.
In the case of `CC1(C)[C@@H](O[C@H]2O[C@H](C(=O)O)[C@@H](O)[C@H](O)[C@H]2O[C@@H]2O[C@H](C(=O)O)[C@@H](O)[C@H](O)[C@H]2O)CC[C@]2(C)[C@H]3C(=O)C=C4[C@@H]5C[C@@](C)(C(=O)O)CC[C@]5(C)CC[C@@]4(C)[C@]3(C)CC[C@@H]12` [Glycyrrhizic acid], the CC50 at 72 h in data set [1] (setting [4]) came out at 3320 µg/mL (≈ 4040 µM). Further, the “MNTC (maximum noncytotoxic concentration)” value in data set [2] (setting [5]) was found to be 1412 µg/mL.
With `Cc1coc2c1C(=O)C(=O)c1c-2ccc2c1CCCC2(C)C` [Tanshinone IIA], in data set [3], the “inhibition of FIPV infection (MIR)” value was “less than 20%”. Besides, in data set [1] (setting [4]), the CC50 at 72 h is 807 µg/mL (≈ 2740 µM). Also, in data set [2] (setting [5]), the “MNTC (maximum noncytotoxic concentration)” value came out at 290.9 µg/mL.
In the case of `O=C1CCC[C@@H]2[C@H]3CCCN4CCC[C@@H](CN12)[C@@H]34` [Matrine], the “inhibition of FIPV infection (MIR)” value in data set [3] is reported as “less than 20%”. For the same molecule, in data set [1] (setting [4]), the CC50 at 72 h was 1110 µg/mL (≈ 4470 µM). In addition, the “MNTC (maximum noncytotoxic concentration)” value in data set [2] (setting [5]) was determined as 699.8 µg/mL.
